Assay [1] concerns HT-22 cells. The experiment in a line: Improvement in mitochondrial membrane potential dropped by amyloid beta (JC-1 dye). Type of assay: cell-based. Particulars: compound 5 μM, amyloid beta 5 μM, 3 hours, JC-1 green:red ratio, amyloid beta damage = 0%, normal = 100%. How it is done:
(§1) Meanwhile, the compound represented by Formula 1 according to the present invention is evaluated through a test to determine recovery of mitochondrial functions damaged by amyloid beta, as described in the following Test Example. After the test, the results are shown in terms of the percentages of mitochondrial function disorder caused by amyloid beta. The degree of mitochondrial function disorder caused by amyloid beta is taken as 0% and the normal condition in the absence of amyloid beta is shown as 100%.
To a transparent 96-well plate, HT-22 cells are inoculated in a number of 30,000 per well one day before the test. On the next day, JC-1 dye (Stratagen, USA) is diluted with Opti-MEM containing no phenol red to a concentration of 7.5 μM, and the resultant dilution is used to treat the cells for 1 hour and 15 minutes. The dyed cells are washed twice with phosphate buffer solution (PBS), followed by treatment with each compound to a final concentration of 5 μM per well. Then, the cells are cultured at 37° C. for 10 minutes. Particularly, for each drug, two wells are treated with amyloid beta (5 μM) and the other two wells are treated with the vehicle control (5 μM DMSO). Then, the cells are cultured at 37° C. for 3 hours. The fluorescence intensity of each well is read by using a fluorescence plate reader at 485/535 nm (green/J-monomer) and 560/595 nm (red/J-aggregate). Then, the ratio of green:red is calculated and the results are normalized by taking the change of the ratio between addition of amyloid beta and no-addition of amyloid beta in the vehicle control non-treated with drugs as 100%.

Assay [2] has as its system HT-22 cells. The experiment in a line: Recovery of ATP production capability reduced by amyloid beta (luciferin/luciferase). Conditions: compound 5 μM, amyloid beta 5 μM, 7 hours, amyloid beta vehicle control without drug = 0%. Type of assay: cell-based. How it is done: as §1
To a transparent 96-well plate, HT-22 cells are inoculated in a number of 10,000 per well one day before the test, followed by treatment with each compound to a final concentration of 5 μM per well. The cells are cultured at 37° C. for 10 minutes. Particularly, for each drug, two wells are treated with amyloid beta (5 μM) and the other two wells are treated with the vehicle control (5 μM DMSO). After the treatment, the cells are cultured at 37° C. for 7 hours. The cells treated with each drug are washed twice with PBS, lysed with Triton X-100 (1% in TSBT buffer) and agitated at room temperature for 5 minutes. […] is used to determine the protein amount of each well, and the same amount of protein taken from each well is added to a white 96-well plate. Then, […] (Molecular Probe, USA) for ATP determination containing d-luciferin and luciferase is added thereto and emission peaks generated from each of the wells are determined. After the determination, the peaks are normalized by taking the vehicle control to which amyloid beta is added without treatment with any drug as 0%.

Consider `COc1ccc(OC)c(-c2nc3ccccc3n2CC(=O)Nc2cc(C(C)C)ccc2C)c1` [Compound 1, 2-(2-(2,5-dimethoxyphenyl)-1H-benzo[d]imidazol-1-yl)-N-(5-isopropyl-2-methylphenyl)acetamide], for which the “Improvement in Membrane Potential (%) (5 μM)” value (from here on “Improvement … (%) (5 μM)”) in assay [1] came to 41%.

With `Cc1ccc(C(C)C)cc1NC(=O)Cn1c(-c2ccccc2)nc2ccccc21` [Compound 4, N-(5-isopropyl-2-methylphenyl)-(2-phenyl-1H-benzo[d]imidazol-1-yl)acetamide], the “Improvement … (%) (5 μM)” value in assay [1] worked out at 91%.

Regarding `O=C(Cn1c(-c2cc(Cl)ccc2Cl)nc2ccccc21)Nc1cc(Cl)cc(Cl)c1` [Compound 5, N-(3,5-dichlorophenyl)-2-(2-(2,5-dichlorophenyl)-1H-benzo[d]imidazol-1-yl)acetamide], the “Improvement … (%) (5 μM)” value in assay [1] turned out to be 91%.

On to `Cc1cccc(C(C)(C)C)c1NC(=O)Cn1c(-c2cc(Cl)ccc2Cl)nc2ccccc21` [Compound 7, N-(2-tert-butyl-6-methylphenyl)-2-(2-(2,5-dichlorophenyl)-1H-benzo[d]imidazol-1-yl)acetamide], for which the “Improvement … (%) (5 μM)” value in assay [1] was determined as 41%.

As to `Cc1cccc(C(C)(C)C)c1NC(=O)Cn1c(Cc2ccccc2)nc2ccccc21` [Compound 12, 2-(2-benzyl-1H-benzo[d]imidazol-1-yl)-N-(2-tert-butyl-6-methylphenyl)acetamide], in assay [1], the “Improvement … (%) (5 μM)” value is 38%.

On to `CC(C)(C)c1cc(NC(=O)Cn2c(-c3ccccc3)nc3ccccc32)cc(C(C)(C)C)c1` [Compound 13, N-(3,5-di-tert-butylphenyl)-2-(2-phenyl-1H-benzo[d]imidazol-1-yl)acetamide], for which the “Improvement … (%) (5 μM)” value in assay [1] came to 86%.

As for `Cc1ccc(C(C)C)cc1NC(=O)Cn1c(-c2ccccc2)nc2ccccc21` [Compound 14, N-(5-isopropyl-2-methylphenyl)-2-(2-phenyl-1H-benzo[d]imidazol-1-yl)acetamide], the “Improvement … (%) (5 μM)” value in assay [1] came to 73%.

In the case of `O=C(Cn1c(-c2ccccc2)nc2ccccc21)Nc1cc(Cl)cc(Cl)c1` [Compound 15, N-(3,5-dichlorophenyl)-2-(2-phenyl-1H-benzo[d]imidazol-1-yl)acetamide], in assay [1], the “Improvement … (%) (5 μM)” value is listed as 69%.

Regarding `Cc1cccc(C(C)(C)C)c1NC(=O)Cn1c(-c2ccccc2)nc2ccccc21` [Compound 16, N-(2-tert-butyl-6-methylphenyl)-2-(2-phenyl-1H-benzo[d]imidazol-1-yl)acetamide], in assay [2], the “ATP Production Capability Recovery (%) (5 μM)” value is 55%. Also, the “Improvement … (%) (5 μM)” value in assay [1] worked out at 65%.

Consider `COc1ccc(OC)c(Cc2nc3ccccc3n2CC(=O)Nc2cc(C(C)(C)C)cc(C(C)(C)C)c2)c1` [Compound 17, N-(3,5-di-tert-butylphenyl)-2-(2-(2,5-dimethoxybenzyl)-1H-benzo[d]imidazol-1-yl)acetamide], for which, in assay [2], the “ATP Production Capability Recovery (%) (5 μM)” value was 46%. Further, the “Improvement … (%) (5 μM)” value in assay [1] worked out at 54%.

Take `COc1ccc(OC)c(Cc2nc3ccccc3n2CC(=O)Nc2cc(Cl)cc(Cl)c2)c1` [Compound 18, N-(3,5-dichlorophenyl)-2-(2-(2,5-dimethoxybenzyl)-1H-benzo[d]imidazol-1-yl)acetamide]: the “ATP Production Capability Recovery (%) (5 μM)” value in assay [2] is given as 94%. Moreover, the “Improvement … (%) (5 μM)” value in assay [1] was 68%.

In the case of `COc1ccc(OC)c(Cc2nc3ccccc3n2CC(=O)Nc2cc(C(C)C)ccc2C)c1` [Compound 19, 2-(2-(2,5-dimethoxybenzyl)-1H-benzo[d]imidazol-1-yl)-N-(5-isopropyl-2-methylphenyl)acetamide], the “Improvement … (%) (5 μM)” value in assay [1] worked out at 81%.

For `Cc1ccc(C(C)C)cc1NC(=O)Cn1c(Cc2ccc(Cl)c(Cl)c2)nc2ccccc21` [Compound 21, 2-(2-(3,4-dichlorobenzyl)-1H-benzo[d]imidazol-1-yl)-N-(5-isopropyl-2-methylphenyl)acetamide], in assay [1], the “Improvement … (%) (5 μM)” value came out at 57%.

Turning to `CC(C)(C)c1cc(NC(=O)Cn2c(Cc3ccc(Cl)c(Cl)c3)nc3ccccc32)cc(C(C)(C)C)c1` [Compound 24, N-(3,5-di-tert-butylphenyl)-2-(2-(3,4-dichlorobenzyl)-1H-benzo[d]imidazol-1-yl)acetamide], the “Improvement … (%) (5 μM)” value in assay [1] came out at 42%.

As for `Cc1ccc(C(C)C)cc1NC(=O)Cn1c(-c2cc(Cl)ccc2Cl)nc2cc(Cl)ccc21` [Compound 26, 2-(5-chloro-2-(2,5-dichlorophenyl)-1H-benzo[d]imidazol-1-yl)-N-(5-isopropyl-2-methylphenyl)acetamide], the “Improvement … (%) (5 μM)” value in assay [1] is given as 60%.

`O=C(Cn1c(-c2cc(Cl)ccc2Cl)nc2cc(Cl)ccc21)Nc1cc(Cl)cc(Cl)c1` [Compound 27, 2-(5-chloro-2-(2,5-dichlorophenyl)-1H-benzo[d]imidazol-1-yl)-N-(3,5-dichlorophenyl)acetamide]: the “Improvement … (%) (5 μM)” value in assay [1] is recorded as 77%.

Turning to `CN1CCC(NC(=O)c2ccc(Cn3c(Cc4c(Cl)cccc4Cl)nc4ccccc43)cc2)CC1` [Compound 33, 4-((2-(2,6-dichlorobenzyl)-1H-benzo[d]imidazol-1-yl)methyl)-N-(1-methylpiperidin-4-yl)benzamide], the “Improvement … (%) (5 μM)” value in assay [1] is on record as 81%.

`O=C(NCCCN1CCCC1)c1ccc(Cn2c(Cc3c(Cl)cccc3Cl)nc3ccccc32)cc1` [Compound 35, 4-((2-(2,6-dichlorobenzyl)-1H-benzo[d]imidazol-1-yl)methyl)-N-(3-(pyrrolidin-1-yl)propyl)benzamide]: in assay [1], the “Improvement … (%) (5 μM)” value turned out to be 79%.

Consider `CN1CCN(CCCNC(=O)c2ccc(Cn3c(Cc4c(Cl)cccc4Cl)nc4ccccc43)cc2)CC1` [Compound 36, 4-((2-(2,6-dichlorobenzyl)-1H-benzo[d]imidazol-1-yl)methyl)-N-(3-(4-methylpiperazin-1-yl)propyl)benzamide], for which, in assay [1], the “Improvement … (%) (5 μM)” value is recorded as 86%.

For the molecule `O=C(NCCN1CCCCC1)c1ccc(Cn2c(Cc3c(Cl)cccc3Cl)nc3ccccc32)cc1` [Compound 38, 4-((2-(2,6-dichlorobenzyl)-1H-benzo[d]imidazol-1-yl)methyl)-N-(3-(piperidin-1-yl)ethyl)benzamide], the “Improvement … (%) (5 μM)” value in assay [1] stood at 89%.

For the molecule `O=C(NCCCN1CCOCC1)c1ccc(Cn2c(Cc3c(Cl)cccc3Cl)nc3ccccc32)cc1` [Compound 39, 4-((2-(2,6-dichlorobenzyl)-1H-benzo[d]imidazol-1-yl)methyl)-N-(3-morpholinopropyl)benzamide], the “Improvement … (%) (5 μM)” value in assay [1] turned out to be 76%.

As for `CCN1CCCC1CNC(=O)c1ccc(Cn2c(CC(=O)Nc3cc(C(C)C)ccc3C)nc3ccccc32)cc1` (stereo not shown) [Compound 41, N-((1-ethylpyrrolidin-2-yl)methyl)-4-((2-(2-(5-isopropyl-2-methylphenylamino)-2-oxoethyl)-1H-benzo[d]imidazol-1-yl)methyl)benzamide], the “Improvement … (%) (5 μM)” value in assay [1] came to 68%.

Turning to `Cc1ccc(C(C)C)cc1NC(=O)Cc1nc2ccccc2n1Cc1ccc(C(=O)NCCCN(C)C)cc1` [Compound 42, N-(3-(dimethylamino)propyl)-4-((2-(2-(5-isopropyl-2-methylphenylamino)2-oxoethyl)-1H-benzo[d]imidazol-1-yl)methyl)benzamide], the “Improvement … (%) (5 μM)” value in assay [1] was determined as 68%.

Turning to `CCN1CCCC1CNC(=O)c1ccc(CSc2nc3ccccc3n2CC(=O)Nc2cc(C(C)C)ccc2C)cc1` (stereo not shown) [Compound 43, N-((1-ethylpyrrolidin-2-yl)methyl)-4-((1-(2-(5-isopropyl-2-methylphenylamino)2-oxoethyl)-1H-benzo[d]imidazol-2-ylthio)methyl)benzamide], in assay [1], the “Improvement … (%) (5 μM)” value stood at 70%.

On to `Cc1ccc(C(C)C)cc1NC(=O)Cc1nc2ccccc2n1Cc1ccc(C(=O)NCCCN2CCCCC2)cc1` [Compound 44], for which the “Improvement … (%) (5 μM)” value in assay [1] came to 80%.

As to `Cc1ccc(C(C)C)cc1NC(=O)Cn1c(SCc2ccc(C(=O)NCCCN(C)C)cc2)nc2ccccc21` [Compound 45, N-(3-(dimethylamino)propyl)-4-((1-(2-(5-isopropyl-2-methylphenylamino)-2-oxoethyl)-1H-benzo[d]imidazol-2-ylthio)methyl)benzamide], in assay [1], the “Improvement … (%) (5 μM)” value came out at 59%.

As to `Cc1ccc(C(C)C)cc1NC(=O)Cn1c(SCc2ccc(C(=O)NCCCN3CCCCC3)cc2)nc2ccccc21` [Compound 46], in assay [1], the “Improvement … (%) (5 μM)” value amounted to 67%.

In the case of `CN(C)C(=O)c1ccc(Cn2c(Cc3c(Cl)cccc3Cl)nc3ccccc32)cc1` [Compound 47, 4-((2-(2,6-dichlorobenzyl)-1H-benzo[d]imidazol-1-yl)methyl)-N,N-dimethylbenzamide], the “Improvement … (%) (5 μM)” value in assay [1] is given as 73%.
